From patent publication US9587266B2, “Mutant luciferases” (University of Massachusetts, priority 2011, dated 2017)
Several values for one entry are separate records, joined by “and”; a condition that tells them apart may be missing. Identical values can stand only once. Like-named read-outs stand apart in the source and are kept apart here.

Key:
[1] = biological target: T1, S347A mutant luciferase (Photinus pyralis, UniProt P08659, S347A); assay type: biochemical; conditions: purified protein; for Km: 3 minutes post-substrate addition, read-out: Apparent Km
T1 construct: The full firefly (Photinus pyralis) luciferase gene was PCR amplified from pGL3 (Promega); GST (N, cleaved yes); made in house; host or cells: E. coli JM109
T1 sequence (P08659 whole entry S347A): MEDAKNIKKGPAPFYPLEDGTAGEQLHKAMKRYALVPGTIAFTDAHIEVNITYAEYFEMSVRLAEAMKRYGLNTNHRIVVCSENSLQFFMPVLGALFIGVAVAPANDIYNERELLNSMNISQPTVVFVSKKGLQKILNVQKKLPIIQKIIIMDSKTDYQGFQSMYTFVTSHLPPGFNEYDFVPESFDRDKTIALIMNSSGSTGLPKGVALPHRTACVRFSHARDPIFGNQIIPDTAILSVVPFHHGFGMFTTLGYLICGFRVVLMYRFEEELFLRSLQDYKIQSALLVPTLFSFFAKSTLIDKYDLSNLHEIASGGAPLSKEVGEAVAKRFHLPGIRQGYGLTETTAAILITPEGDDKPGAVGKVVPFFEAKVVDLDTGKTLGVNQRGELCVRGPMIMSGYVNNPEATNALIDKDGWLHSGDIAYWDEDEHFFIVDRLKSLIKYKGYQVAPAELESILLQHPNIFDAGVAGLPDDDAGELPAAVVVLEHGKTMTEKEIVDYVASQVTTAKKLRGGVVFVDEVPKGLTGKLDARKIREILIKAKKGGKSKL
Method: (§1) The PCR product was cloned into the BamH1 and NotI sites of pGEX6P-1 for bacterial expression. Mutant proteins were created using the Quickchange site-directed mutagenesis kit (Stratagene). Saturating mutagenesis was performed using the used the degenerate codon NNK at sites predicted to impact or alter substrate biding including F247, T251, L286, S347, R337, R218, Q338, Y340, A313, and I351 using the degenerate codon NNK.
(§2) Luminescence assays in 96-well plates were initiated by adding 30 μL 2× substrate in 20 mM Tris pH 7.6, 0.1 mM EDTA, 8 mM MgSO4, 4 mM ATP, and 1 mM TCEP to 30 μL of 20 nM purified luciferase in 20 mM Tris pH 7.6, 0.1 mM EDTA, 1 mM TCEP and 0.4 mg/mL BSA.

[2] = biological target: T2, R218K mutant luciferase (Photinus pyralis, UniProt P08659, R218K); assay type: biochemical; conditions: for Apparent Vmax / Km: R218K luciferase, purified protein; for Km: 3 minutes post-substrate addition, read-out: Apparent Km
T2 construct: The full firefly (Photinus pyralis) luciferase gene was PCR amplified from pGL3 (Promega); GST (N, cleaved yes); made in house; host or cells: E. coli JM109
T2 sequence (P08659 whole entry R218K): as the sequence (P08659 whole entry S347A) above, with R218K, A347S counted along it
Method: as §1, §2

[3] = biological target: T3, T251S mutant luciferase (Photinus pyralis, UniProt P08659, T251S); experiment: Titration assay with purified protein; assay type: biochemical; conditions: for Km: 3 minutes post-substrate addition, read-out: Apparent Km
T3 construct: The full firefly (Photinus pyralis) luciferase gene was PCR amplified from pGL3 (Promega); GST (N, cleaved yes); made in house; host or cells: E. coli JM109
T3 sequence (P08659 whole entry T251S): as the sequence (P08659 whole entry S347A) above, with T251S, A347S counted along it
Method: as §1, §2

[4] = biological target: T4, L286M mutant luciferase (Photinus pyralis, UniProt P08659, L286M); experiment: Titration assay with purified protein; assay type: biochemical; conditions: for Km: 3 minutes post-substrate addition, read-out: Apparent Km
T4 construct: The full firefly (Photinus pyralis) luciferase gene was PCR amplified from pGL3 (Promega); GST (N, cleaved yes); made in house; host or cells: E. coli JM109
T4 sequence (P08659 whole entry L286M): as the sequence (P08659 whole entry S347A) above, with L286M, A347S counted along it
Method: as §1, §2

[5] = biological target: T5, WT luciferase (Photinus pyralis, UniProt P08659); experiment: Titration assay with purified protein; assay type: biochemical; conditions: for Km: 3 minutes post-substrate addition, read-out: Apparent Km
T5 construct: The full firefly (Photinus pyralis) luciferase gene was PCR amplified from pGL3 (Promega); GST (N, cleaved yes); made in house; host or cells: E. coli JM109
T5 sequence (P08659 whole entry): as the sequence (P08659 whole entry S347A) above, with A347S counted along it
Method: The PCR product was cloned into the BamH1 and NotI sites of pGEX6P-1 for bacterial expression. Mutant proteins were created using the Quickchange site-directed mutagenesis kit (Stratagene). Saturating mutagenesis was performed using the used the degenerate codon NNK at sites predicted to impact or alter substrate biding including F247, T251, L286, S347, R337, R218, Q338, Y340, A313, and I351 using the degenerate codon NNK. The point mutants S347A, L286A, A348G, E311A, I351A, A313G, R337A, H245A and L342A were made independently.
Luminescence assays in 96-well plates were initiated by adding 30 μL 2× substrate in 20 mM Tris pH 7.6, 0.1 mM EDTA, 8 mM MgSO4, 4 mM ATP, and 1 mM TCEP to 30 μL of 20 nM purified luciferase in 20 mM Tris pH 7.6, 0.1 mM EDTA, 1 mM TCEP and 0.4 mg/mL BSA. Titration assays were performed 3 minutes post-substrate addition in a Turner Veritas luminometer with final substrate concentrations ranging from 0.122-250 μM or 0.244-500 μM.

[6] = biological target: T6, R218K + L342A luciferase (Photinus pyralis, UniProt P08659, L342A/R218K); assay type: biochemical
T6 construct: The full firefly (Photinus pyralis) luciferase gene was PCR amplified from pGL3 (Promega); GST (N, cleaved yes); made in house; host or cells: E. coli JM109
T6 sequence (P08659 whole entry R218K/L342A): as the sequence (P08659 whole entry S347A) above, with R218K, L342A, A347S counted along it
Method: (§3) Purified mutant luciferases were used in bioluminescence emission and burst kinetics scans. Each purified protein in 20 mM Tris pH 7.6, 0.1 mM EDTA, 1 mM TCEP and 0.4 mg/mL BSA was added to 2× substrate in 20 mM Tris pH 7.6, 0.1 mM EDTA, 8 mM MgSO4, 4 mM ATP, and 1 mM TCEP in a cuvette.
(§4) Luciferase was rapidly injected into a cuvette containing substrate, and the emission from 400-800 nm was recorded in a SPEX FluoroMax-3 fluorimeter with closed excitation slits.

[7] = biological target: T5, WT luciferase; assay type: biochemical; conditions: Table 3
Method: as §3, §4

[8] = biological target: T7, L286M + S347A luciferase (Photinus pyralis, UniProt P08659, L286M/S347A); experiment: Bioluminescence emission scan; assay type: biochemical
T7 construct: The full firefly (Photinus pyralis) luciferase gene was PCR amplified from pGL3 (Promega); GST (N, cleaved yes); made in house; host or cells: E. coli JM109
T7 sequence (P08659 whole entry L286M/S347A): as the sequence (P08659 whole entry S347A) above, with L286M counted along it
Method: (§5) Purified mutant luciferases were used in bioluminescence emission and burst kinetics scans.
as §4

[9] = biological target: T8, L342A luciferase (Photinus pyralis, UniProt P08659, L342A); experiment: Bioluminescence emission scan; assay type: biochemical
T8 construct: The full firefly (Photinus pyralis) luciferase gene was PCR amplified from pGL3 (Promega); GST (N, cleaved yes); made in house; host or cells: E. coli JM109
T8 sequence (P08659 whole entry L342A): as the sequence (P08659 whole entry S347A) above, with L342A, A347S counted along it
Method: as §5, §4

[10] = biological target: T9, R218K luciferase (Photinus pyralis, UniProt P08659, R218K); experiment: Bioluminescence emission scan; assay type: biochemical
T9 construct: The full firefly (Photinus pyralis) luciferase gene was PCR amplified from pGL3 (Promega); GST (N, cleaved yes); made in house; host or cells: E. coli JM109
T9 sequence (P08659 whole entry R218K): as the sequence (P08659 whole entry S347A) above, with R218K, A347S counted along it
Method: as §5, §4

[11] = system: Nc1ccc2nc(C3=N[C@@H](C(=O)O)CS3)sc2c1; experiment: purified protein, by the assay type; conditions: 3 minutes post-substrate addition, pH 7.6

| Compound | Maximum Emission Wavelength of Selected Substrate [6] [nm] | Maximum Emission Wavelength of Selected Substrate [7] [nm] | Maximum Emission Wavelength of Selected Substrate [8] [nm] | Maximum Emission Wavelength of Selected Substrate [9] [nm] | Maximum Emission Wavelength of Selected Substrate [10] [nm] | other results |
| --- | --- | --- | --- | --- | --- | --- |
| CN(C)c1ccc2nc(C3=NC(C(=O)O)CS3)sc2c1 (centres unmarked) [6′-Me2NLH2] | 628 | 619 | 608 | 619 | 624 | Apparent Vmax [1]: 2.1 ± 0.02 ×10^−5 cps; Km [1]: 0.24 ± 0.014 µM; Apparent Vmax [2]: 5 ± 0.1 ×10^−5 cps; Km [2]: 0.35 ± 0.04 µM; Apparent Vmax [3]: 1.6 ± 0.02 ×10^−5 cps; Km [3]: 0.3 ± 0.02 µM; Apparent Vmax [4]: 1.3 ± 0.01 ×10^−5 cps; Km [4]: 0.08 ± 0.005 µM; Apparent Vmax [5]: 0.5 ± 0.003 ×10^−5 cps; Km [5]: 0.025 ± 0.003 µM |
| CNc1ccc2nc(C3=NC(C(=O)O)CS3)sc2c1 (centres unmarked) [6′-MeNHLH2, Monomethylaminoluciferin] | 612 | 608 | 599 | 611 | 610 | Apparent Vmax [1]: 16 ± 0.2 ×10^−5 cps; Km [1]: 0.47 ± 0.03 µM; Apparent Vmax [2]: 38 ± 0.5 ×10^−5 cps; Km [2]: 0.45 ± 0.04 µM; Apparent Vmax [3]: 8 ± 0.1 ×10^−5 cps; Km [3]: 0.27 ± 0.02 µM; Apparent Vmax [4]: 7 ± 0.05 ×10^−5 cps; Km [4]: 0.08 ± 0.005 µM; Apparent Vmax [5]: 3 ± 0.02 ×10^−5 cps; Km [5]: 0.06 ± 0.004 µM |
| CN1CCc2cc3nc(C4=N[C@@H](C(=O)O)CS4)sc3cc21 [CycLuc2] | 617 | 609 | 608 | 611 | 621 | Apparent Vmax [1]: 7.6 ± 0.05 ×10^−5 cps; Km [1]: 0.11 ± 0.005 µM; Apparent Vmax [2]: 26 ± 0.3 ×10^−5 cps; Km [2]: 0.3 µM and 0.27 µM; improvement in the maximal sustained emission ([2]; R218K mutant relative to wild-type luciferase): 20 fold; Apparent Vmax [3]: 4.8 ± 0.1 ×10^−5 cps; Km [3]: 0.13 ± 0.02 µM; Apparent Vmax [4]: 2.3 ± 0.02 ×10^−5 cps; Km [4]: 0.1 ± 0.01 µM; Apparent Vmax [5]: 1.3 ± 0.02 ×10^−5 cps; Maximum Emission Wavelength of Selected Substrate ([10]; listed as Cyc2): 619 nm |
| CN1CCOc2cc3nc(C4=NC(C(=O)O)CS4)sc3cc21 (centres unmarked) [CycLuc4, 2-(8-Methyl-7,8-dihydro-6H-5-oxa-1-thia-3,8-diaza-cyclopenta[b]naphthalen-2-yl)-4,5-dihydro-thiazole-4-carboxylic acid] | 616 | 607 | 602 | 608 | 617 |  |
| CC1=CC(C)(C)Nc2cc3sc(C4=NC(C(=O)O)CS4)nc3cc21 (centres unmarked) [CycLuc5, 2-(6,6,8-Trimethyl-5,6-dihydro-thiazolo[4,5-g]quinolin-2-yl)-4,5-dihydro-thiazole-4-carboxylic acid] | 633 | 637 | 631 | 631 | 635 |  |
| CC1=CC(C)(C)N(C)c2cc3sc(C4=NC(C(=O)O)CS4)nc3cc21 (centres unmarked) [CycLuc6, 2-(5,6,6,8-Tetramethyl-5,6-dihydro-thiazolo[4,5-g]quinolin-2-yl)-4,5-dihydro-thiazole-4-carboxylic acid] | 635 | 636 | 628 | 639 | 637 |  |
| O=C(O)C1CSC(c2nc3cc4c(cc3s2)NCCC4)=N1 (centres unmarked) [CycLuc7, 2-(5,6,7,8-Tetrahydro-thiazolo[4,5-g]quinolin-2-yl)-4,5-dihydro-thiazole-4-carboxylic acid] | 616 | 607 | 604 | 611 | 620 |  |
| CN1CCCc2cc3nc(C4=NC(C(=O)O)CS4)sc3cc21 (centres unmarked) [CycLuc8, 2-(5-Methyl-5,6,7,8-tetrahydro-thiazolo[4,5-g]quinolin-2-yl)-4,5-dihydro-thiazole-4-carboxylic acid] | 628 | 610 | 605 | 614 | 632 |  |
| CCCO [Propanol] | 609 | 608 | 593 | 607 | 609 |  |
| L286M mutant luciferase (Photinus pyralis; L286M) |  |  |  |  |  | Km ([11]; other: L286M luciferase): 4.35 ± 0.2 µM |
| R218K mutant luciferase (Photinus pyralis; R218K) |  |  |  |  |  | Km ([11]; other: R218K luciferase): 15.2 ± 1.1 µM |
| S347A mutant luciferase (Photinus pyralis; S347A) |  |  |  |  |  | Km ([11]; other: S347A luciferase): 31.0 ± 0.4 µM |
| T251S mutant luciferase (Photinus pyralis; T251S) |  |  |  |  |  | Km ([11]; other: T251S luciferase): 17.3 ± 0.3 µM |
